Data reported in ChEMBL document CHEMBL1122681, “(Acylaryloxy)acetic acid diuretics. 5. [(2-Alkyl- and 2,2-disubstituted-1,3-dioxo-5-indanyl)oxy]acetic acids” (J Med Chem, 1984).

Assays:
Pan troglodytes [1] = test: (§1) Compound was evaluated for diuretic activity in chimpanzee measured as increase in volume of urine at 1 mg/kg; assay type: ADME, organism-based; parameters: dose 1 mg/kg; details: in vivo
Pan troglodytes [2] = test: (§2) Compound was evaluated for diuretic activity in chimpanzee measured as increase in the number of microequivalents of Na+ /min at 1 mg/kg; assay type: functional, Urine
Pan troglodytes [3] = test: Compound was evaluated for diuretic activity in chimpanzee measured as increase in the number of microequivalents of Na+ /min at 5 mg/kg; assay type: functional, Urine
Pan troglodytes [4] = test: Compound was evaluated for diuretic activity in chimpanzee measured as increase in the number of microequivalents of K+ /min at 5 mg/kg; assay type: functional, Urine
Pan troglodytes [5] = test: Compound was evaluated for diuretic activity in chimpanzee measured as increase in volume of urine at 5 mg/kg; assay type: functional
Pan troglodytes [6] = test: Compound was evaluated for diuretic activity in chimpanzee measured as clearance of […] and urate after peroral administration of 5 mg/kg; assay type: functional, Urine; details: route oral
Pan troglodytes [7] = test: Compound was evaluated for diuretic activity in chimpanzee measured as increase in the number of microequivalents of cl-/min at 5 mg/kg; assay type: functional, Urine
Pan troglodytes [8] = test: Compound was evaluated for diuretic activity in chimpanzee measured as increase in the number of microequivalents of K+ /min at 1 mg/kg; assay type: functional, Urine
Pan troglodytes [9] = test: Compound was evaluated for diuretic activity in chimpanzee measured as clearance of […] and urate after intra venous administration of 5 mg/kg.; assay type: functional, Urine
Pan troglodytes [10] = test: Compound was evaluated for diuretic activity in chimpanzee measured as increase in the number of microequivalents of Cl- electrolyte/min at 1 mg/kg; assay type: functional, Urine
Canis familiaris [11] = test: Compound was evaluated for diuretic activity, administered orally in female mongrel dogs (5 mg/kg) measured as milliequivalents of Cl-; assay type: functional, Canis lupus familiaris, Urine
Rattus norvegicus [12] = test: Compound was evaluated for diuretic activity administered orally in female rats measured as milliequivalents of K+x 100 / cage at 81 mg/kg; assay type: functional, Urine; details: route oral
Rattus norvegicus [13] = test: Compound was evaluated for diuretic activity administered orally in female rats measured as milliequivalents of Na+x 100 / cage at 27 mg/kg; assay type: functional, Urine; details: route oral
Pan troglodytes [14] = test: Compound was evaluated for diuretic activity in chimpanzee measured as clearance of […] and urate after intra venous administration of 1 mg/kg.; assay type: functional, Urine
Canis familiaris [15] = test: Compound was evaluated for diuretic activity, in female mongrel dogs by measuring amount of K+ in urine after iv administration of 5 mg/kg (control/compound treatment results) Control = 13; assay type: functional, Canis lupus familiaris
[16] = volume of urine at 81 mg/kg; assay type: ADME, organism-based; parameters: dose 81 mg/kg; details: in vivo
Pan troglodytes [17] = test: as §1; assay type: functional
Rattus norvegicus [18] = test: Compound was evaluated for diuretic activity administered orally in female rats measured as milliequivalents of K+x 100 / cage at 27 mg/kg; assay type: functional, Urine; details: route oral
Canis familiaris [19] = test: Compound was evaluated for diuretic activity, in female mongrel dogs by measuring amount of Na+ in urine after iv administration of 5 mg/kg (control/compound treatment results) Control = 79; assay type: functional, Canis lupus familiaris
[20] = volume of urine at 27 mg/kg; assay type: ADME, organism-based; parameters: dose 27 mg/kg; details: in vivo
Rattus norvegicus [21] = test: Compound was evaluated for diuretic activity administered orally in female rats measured as milliequivalents of Na+x 100 / cage at 81 mg/kg; assay type: functional, Urine; details: route oral
Rattus norvegicus [22] = test: Compound was evaluated for diuretic activity administered orally in female rats measured as milliequivalents of Cl-x 100 / cage at 81 mg/kg; assay type: functional, Urine; details: route oral
Rattus norvegicus [23] = test: Compound was evaluated for diuretic activity administered orally in female rats measured as milliequivalents of Cl-x 100 / cage at 3 mg/kg; assay type: functional, Urine; details: route oral
Canis familiaris [24] = test: Compound was evaluated for diuretic activity, administered orally in female mongrel dogs (5 mg/kg) measured as milliequivalents of K; assay type: functional, Canis lupus familiaris, Urine
Rattus norvegicus [25] = test: Compound was evaluated for diuretic activity administered orally in female rats measured as milliequivalents of K+x 100 / cage at 3 mg/kg; assay type: functional, Urine; details: route oral
Rattus norvegicus [26] = test: Compound was evaluated for diuretic activity administered orally in female rats measured as milliequivalents of Na+x 100 / cage at 3 mg/kg; assay type: functional, Urine; details: route oral
Pan troglodytes [27] = test: Compound was evaluated for diuretic activity in chimpanzee measured as increase in the number of microequivalents of Cl- electrolyte/min at 5 mg/kg; assay type: functional, Urine
Canis familiaris [28] = test: Compound was evaluated for diuretic activity, in female mongrel dogs by measuring amount of Cl- in urine after iv administration of 5 mg/kg (control/compound treatment results) Control = 6; assay type: functional, Canis lupus familiaris
Rattus norvegicus [29] = test: Compound was evaluated for diuretic activity administered orally in female rats measured as milliequivalents of Cl-+x 100 / cage at 27 mg/kg; assay type: functional, Urine; details: route oral
Rattus norvegicus [30] = test: Compound was evaluated for diuretic activity administered orally in female rats measured as milliequivalents of Na+x 100 / cage at 9 mg/kg; assay type: functional, Urine; details: route oral
Canis familiaris [31] = species: Canis familiaris; test: Volume of urine in dog; assay type: ADME, organism-based, Canis lupus familiaris; details: in vivo
[32] = volume of urine at 9 mg/kg; assay type: ADME, organism-based; parameters: dose 9 mg/kg; details: in vivo
Canis familiaris [33] = test: Compound was evaluated for diuretic activity, administered orally in female mongrel dogs (5 mg/kg) measured as milliequivalents of Na; assay type: functional, Canis lupus familiaris, Urine
Canis familiaris [34] = test: Compound was evaluated for diuretic activity, in female mongrel dogs by measuring volume of urine, after iv administration of 5 mg/kg (control/compound treatment results) Control = 1; assay type: ADME, organism-based, Canis lupus familiaris; parameters: dose 5 mg/kg, route intravenous; details: dog, in vivo
Rattus norvegicus [35] = test: Compound was evaluated for diuretic activity administered orally in female rats measured as milliequivalents of K+x 100 / cage at 9 mg/kg; assay type: functional, Urine; details: route oral
Rattus norvegicus [36] = test: Compound was evaluated for diuretic activity administered orally in female rats measured as milliequivalents of Cl-x 100 / cage at 9 mg/kg; assay type: functional, Urine; details: route oral
[37] = volume of urine at 3 mg/kg; assay type: ADME, organism-based; parameters: dose 3 mg/kg; details: in vivo
Canis familiaris [38] = test: Compound was evaluated for diuretic activity, in female mongrel dogs by measuring amount of Na+ in urine after iv administration of 5 mg/kg (control/compound treatment results) Control = 35; assay type: functional, Canis lupus familiaris
Pan troglodytes [39] = test: Compound was evaluated for diuretic activity in chimpanzee measured as clearance of […] and urate after intravenous administration of 1 mg/kg; assay type: functional, Urine
Canis familiaris [40] = test: Compound was evaluated for diuretic activity, in female mongrel dogs by measuring volume of urine, after iv administration of 5 mg/kg (control/compound treatment results) Control = 2; assay type: ADME, organism-based, Canis lupus familiaris; parameters: dose 5 mg/kg, route intravenous; details: dog, in vivo
Canis familiaris [41] = test: Compound was evaluated for diuretic activity, in female mongrel dogs by measuring amount of K+ in urine after iv administration of 5 mg/kg (control/compound treatment results) Control = 10; assay type: functional, Canis lupus familiaris
Canis familiaris [42] = test: Compound was evaluated for diuretic activity, in female mongrel dogs by measuring amount of Cl- in urine after iv administration of 5 mg/kg (control/compound treatment results) Control = 5; assay type: functional, Canis lupus familiaris
Pan troglodytes [43] = test: as §2; assay type: functional, Urine; remark: listed apart in the source

| Compound | Increase (Pan troglodytes [2]) | Increase (Pan troglodytes [3]) | Increase (Pan troglodytes [4]) | Increase in volume (Pan troglodytes [5]) [mL/min] | Delta C urate / delta C insulin (Pan troglodytes [6]) | Increase (Pan troglodytes [8]) | Increase (Pan troglodytes [10]) | Activity (Rattus norvegicus [12]) | Activity (Rattus norvegicus [13]) | Urine volume [16] [mL] | Increase in volume (Pan troglodytes [17]) [mL/min] | Activity (Rattus norvegicus [18]) | Urine volume [20] [mL] | Activity (Rattus norvegicus [21]) | Activity (Rattus norvegicus [22]) | Activity (Rattus norvegicus [23]) | Activity (Rattus norvegicus [25]) | Activity (Rattus norvegicus [26]) | Increase (Pan troglodytes [27]) | Activity (Rattus norvegicus [29]) | further results |
| --- | --- | --- | --- | --- | --- | --- | --- | --- | --- | --- | --- | --- | --- | --- | --- | --- | --- | --- | --- | --- | --- |
| CCC1C(=O)c2cc(OC)c(Cl)c(Cl)c2C1=O (centres undefined) | 3 | 4 | 27 | 0.1 | 0.008 | 26 | 13 |  |  |  |  |  |  |  |  |  |  |  |  |  | Increase in volume (Pan troglodytes [1]): 0.1 mL/min; Increase (Pan troglodytes [7]): 10; Delta C urate / delta C insulin (Pan troglodytes [9]): 0 |
| CCC1(CC)C(=O)c2cc(OCC(=O)O)c(C)c(Cl)c2C1=O | 25 | 290 | 132 | 2.7 | 0.138 | 131 | 123 | 106 | 158 | 38 | 0.4 | 62 | 33 | 251 | 369 | 82 | 29 | 70 | 285 | 222 | Activity (Canis familiaris [11]): 10; Delta C urate / delta C insulin (Pan troglodytes [14]): 0.082; Activity (Canis familiaris [15]): 27 u equiv min-1; Activity (Canis familiaris [19]): 259 u equiv min-1; Activity (Canis familiaris [24]): 5; Activity (Canis familiaris [28]): 157 u equiv min-1; Activity (Rattus norvegicus [30]): 92; Urine volume (Canis familiaris [31]): 570 mL; Urine volume [32]: 26 mL; Activity (Canis familiaris [33]): 7; Urine volume (Canis familiaris [34]): 2 mL/min; Activity (Rattus norvegicus [35]): 43; Activity (Rattus norvegicus [36]): 124; Urine volume [37]: 27 mL |
| Cc1c(OCC(=O)O)cc2c(c1Cl)C(=O)C(C)(C1CCCC1)C2=O (centres undefined) |  | 388 | 54 | 0 | 0.149 | 51 | 129 | 36 | 50 | 25 | 0.6 | 22 | 27 | 76 | 86 | 17 | 21 | 19 | 527 | 40 | Activity (Canis familiaris [38]): 132 u equiv min-1; Delta C urate / delta C insulin (Pan troglodytes [39]): 0.204; Urine volume (Canis familiaris [40]): 2 mL/min; Activity (Canis familiaris [41]): 41 u equiv min-1; Activity (Rattus norvegicus [30]): 41; Urine volume [32]: 27 mL; Activity (Canis familiaris [42]): 48 u equiv min-1; Activity (Rattus norvegicus [35]): 24; Activity (Rattus norvegicus [36]): 30; Urine volume [37]: 24 mL; Increase (Pan troglodytes [43]): 82 |
